One experiment deals with T1, DCAMKL2 (Homo sapiens, UniProt Q8N568).
T1 sequence (Q8N568 1-766): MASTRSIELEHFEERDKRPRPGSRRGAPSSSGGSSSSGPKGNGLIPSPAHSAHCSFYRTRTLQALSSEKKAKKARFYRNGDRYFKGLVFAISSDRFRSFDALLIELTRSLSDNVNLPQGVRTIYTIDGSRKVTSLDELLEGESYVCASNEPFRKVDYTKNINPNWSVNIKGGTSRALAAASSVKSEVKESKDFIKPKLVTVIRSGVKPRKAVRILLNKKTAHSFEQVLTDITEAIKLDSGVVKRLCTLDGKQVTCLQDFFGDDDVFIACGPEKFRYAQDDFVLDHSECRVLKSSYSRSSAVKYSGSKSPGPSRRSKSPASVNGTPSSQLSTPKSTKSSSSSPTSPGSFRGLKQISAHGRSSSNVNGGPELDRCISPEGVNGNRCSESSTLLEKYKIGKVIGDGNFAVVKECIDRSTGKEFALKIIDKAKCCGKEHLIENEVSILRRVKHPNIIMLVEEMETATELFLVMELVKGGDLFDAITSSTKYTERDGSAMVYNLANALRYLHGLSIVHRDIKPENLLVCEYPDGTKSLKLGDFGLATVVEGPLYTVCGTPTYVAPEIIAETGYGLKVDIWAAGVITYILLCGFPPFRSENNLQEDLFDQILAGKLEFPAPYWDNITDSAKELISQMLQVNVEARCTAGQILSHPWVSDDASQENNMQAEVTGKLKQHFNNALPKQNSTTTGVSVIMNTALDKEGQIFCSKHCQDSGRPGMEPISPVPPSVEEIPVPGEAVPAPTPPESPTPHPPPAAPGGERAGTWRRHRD
Briefly: in vitro ATP-site competition binding assay, panel of 402 kinases. The settings on record: 10 μM inhibitor.

For another experiment, the target named is T2, TNK1 (Homo sapiens, UniProt Q13470).
T2 sequence (Q13470 1-666): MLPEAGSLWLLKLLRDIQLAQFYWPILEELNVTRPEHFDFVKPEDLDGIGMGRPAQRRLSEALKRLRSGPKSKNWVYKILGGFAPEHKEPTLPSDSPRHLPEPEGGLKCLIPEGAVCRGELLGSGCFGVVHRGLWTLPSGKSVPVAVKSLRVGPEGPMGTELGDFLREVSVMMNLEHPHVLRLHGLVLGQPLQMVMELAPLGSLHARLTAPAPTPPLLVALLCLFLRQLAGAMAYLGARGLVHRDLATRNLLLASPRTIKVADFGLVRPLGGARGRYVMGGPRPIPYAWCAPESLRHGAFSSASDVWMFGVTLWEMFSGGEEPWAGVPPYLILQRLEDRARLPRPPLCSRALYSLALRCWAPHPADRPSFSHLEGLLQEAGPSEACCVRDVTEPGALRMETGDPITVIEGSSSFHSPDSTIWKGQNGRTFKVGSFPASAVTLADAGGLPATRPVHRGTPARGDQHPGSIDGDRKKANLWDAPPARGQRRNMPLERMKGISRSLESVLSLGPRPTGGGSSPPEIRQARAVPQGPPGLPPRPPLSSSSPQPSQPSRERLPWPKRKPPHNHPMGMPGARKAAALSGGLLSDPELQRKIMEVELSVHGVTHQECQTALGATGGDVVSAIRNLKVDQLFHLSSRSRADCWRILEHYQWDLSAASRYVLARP
The description is as above. As to conditions: 10 μM inhibitor.

In experiment [1] the target is T3, PLK4 (Homo sapiens, UniProt O00444).
T3 sequence (O00444 1-970): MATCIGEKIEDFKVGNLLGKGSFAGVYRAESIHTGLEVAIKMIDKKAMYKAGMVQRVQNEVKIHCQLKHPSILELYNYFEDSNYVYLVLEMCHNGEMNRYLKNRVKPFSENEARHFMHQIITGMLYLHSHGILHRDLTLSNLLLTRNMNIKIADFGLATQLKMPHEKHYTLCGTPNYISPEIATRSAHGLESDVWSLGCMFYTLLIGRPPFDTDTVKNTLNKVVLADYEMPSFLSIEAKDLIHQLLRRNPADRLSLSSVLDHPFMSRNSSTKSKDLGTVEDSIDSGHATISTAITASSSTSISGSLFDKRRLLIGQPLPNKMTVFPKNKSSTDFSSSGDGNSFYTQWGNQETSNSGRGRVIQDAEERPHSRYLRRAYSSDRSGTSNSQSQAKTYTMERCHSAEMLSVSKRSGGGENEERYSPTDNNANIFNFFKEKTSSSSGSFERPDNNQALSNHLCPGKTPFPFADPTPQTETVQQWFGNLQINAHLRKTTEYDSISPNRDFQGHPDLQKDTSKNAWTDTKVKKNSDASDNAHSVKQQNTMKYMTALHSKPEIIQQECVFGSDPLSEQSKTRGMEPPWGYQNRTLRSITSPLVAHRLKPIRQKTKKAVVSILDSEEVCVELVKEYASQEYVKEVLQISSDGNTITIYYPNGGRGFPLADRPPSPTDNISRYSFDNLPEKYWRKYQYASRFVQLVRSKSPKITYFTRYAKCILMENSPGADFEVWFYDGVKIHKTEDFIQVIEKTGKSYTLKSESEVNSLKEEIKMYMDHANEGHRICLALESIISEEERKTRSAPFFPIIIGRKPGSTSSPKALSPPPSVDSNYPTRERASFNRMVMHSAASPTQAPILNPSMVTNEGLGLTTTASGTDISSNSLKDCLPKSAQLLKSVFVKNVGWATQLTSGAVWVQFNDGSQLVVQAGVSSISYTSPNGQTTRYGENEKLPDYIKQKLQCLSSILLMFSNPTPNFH
The description is as above. The settings on record: 10 μM inhibitor.

For experiment [2], the target named is T3, PLK4. The experiment can be described thus: Inhibitory effect on PLK4 in vitro and in vivo.
The subject of another experiment is ERK1/2. The experiment can be described thus: EGF-induced ERK1/2 activation in HeLa cells. As to conditions: 1 μM compound for one hour, EGF 17 min. The experiment is classed as cell-based, human.

SMILES strings stand for the structures.

As to `CCOc1cc(N2CCC(O)CC2)ccc1Nc1ncc2c(n1)N(C)c1ccccc1C(=O)N2C` [XMD8-92], the “displacement by XMD8-92” value on DCAMKL2, at TNK1 and on PLK4 [1] was “greater than 90%” each time. Also, at PLK4 [2], the “inhibitory effect on PLK4” value is reported as “no significant inhibitory effect”. In the experiment with ERK1/2, the “Growth factor-induced activation of cellular ERK1/2” value is “but not the structurally similar ERK1/2”.

Values taken from PMC2939729 (Cancer cell, 2010).
